In ChEMBL document CHEMBL3860070, “Optimization and biological evaluation of celastrol derivatives as Hsp90-Cdc37 interaction disruptors with improved druglike properties” (Bioorg Med Chem, 2016):
Activity calls are given as the source filed them. The rule behind the calls is not given here.

How the values were obtained:
Homo sapiens = organism: Homo sapiens; assay: Inhibition of His-tagged full length Hsp90/GST-tagged Cdc37 middle domain (unknown origin) interaction at 50 uM after 1 hr by TR-FRET assay relative to control
[1] = Antiproliferative activity against human MCF7 cells assessed as reduction in cell viability after 48 hrs by MTT assay; type: functional, cell-based; settings: MCF7, 48 h
[2] = Antiproliferative activity against human PANC1 cells assessed as reduction in cell viability after 48 hrs by MTT assay; type: functional, cell-based; settings: PANC-1, 48 h
[3] = Antiproliferative activity against human A549 cells assessed as reduction in cell viability after 48 hrs by MTT assay; type: functional, cell-based; settings: A549, 48 h
[4] = Permeability of the compound at pH 7.4 by PAMPA-based pION assay; type: ADME; settings: read-out: permeability
[5] = Inhibition of His-tagged full length Hsp90/GST-tagged Cdc37 middle domain (unknown origin) interaction after 1 hr by TR-FRET assay; set-up: species or system Homo sapiens
[6] = Antiproliferative activity against paclitaxel-resistant human A549 cells assessed as reduction in cell viability after 48 hrs by MTT assay; type: functional, cell-based; settings: A549, 48 h
PANC-1 [7] = assay: Inhibition of Hsp90/Cdc37 interaction in human PANC1 cells assessed as induction of Hsp70 at 0.1 to 5 uM after 24 hrs by Western blot analysis; type: cell-based
PANC-1 [8] = assay: Inhibition of Hsp90/Cdc37 interaction in human PANC1 cells assessed as downregulation of Akt after 24 hrs by Western blot analysis; type: cell-based
PANC-1 [9] = assay: Inhibition of Hsp90/Cdc37 interaction in human PANC1 cells assessed as downregulation of Cdk4 after 24 hrs by Western blot analysis; type: cell-based
[10] = Cell cycle arrest in human PANC1 cells assessed as accumulation at G0/G1 phase at 0.5 uM after 24 hrs by propidium iodide staining-based FACS analysis (reference value: 36.48 %); type: functional; settings: PANC-1
[11] = Cell cycle arrest in human PANC1 cells assessed as accumulation at G2/M phase at 0.5 uM after 24 hrs by propidium iodide staining-based FACS analysis (reference value: 33.56 %); type: functional; settings: PANC-1
[12] = Cell cycle arrest in human PANC1 cells assessed as accumulation at S phase at 0.5 uM after 24 hrs by propidium iodide staining-based FACS analysis (reference value: 29.96 %); type: functional; settings: PANC-1
[13] = Cell cycle arrest in human PANC1 cells assessed as accumulation at G0/G1 phase at 1 uM after 24 hrs by propidium iodide staining-based FACS analysis (reference value: 36.48 %); type: functional; settings: PANC-1
[14] = Cell cycle arrest in human PANC1 cells assessed as accumulation at G2/M phase at 1 uM after 24 hrs by propidium iodide staining-based FACS analysis (reference value: 33.56 %); type: functional; settings: PANC-1
[15] = Cell cycle arrest in human PANC1 cells assessed as accumulation at S phase at 1 uM after 24 hrs by propidium iodide staining-based FACS analysis (reference value: 29.96 %); type: functional; settings: PANC-1
PANC-1 [16] = assay: Induction of apoptosis in human PANC1 cells assessed as viable cells at 0.5 uM after 24 hrs by Annexin V-FITC/propidium iodide-based FACS analysis (reference value: 94.63 %); type: functional; settings: PANC-1, 24 h, read-out: Activity
PANC-1 [17] = assay: Induction of apoptosis in human PANC1 cells assessed as early apoptotic cells at 0.5 uM after 24 hrs by Annexin V-FITC/propidium iodide-based FACS analysis (reference value: 4.31 %); type: functional
PANC-1 [18] = assay: Induction of apoptosis in human PANC1 cells assessed as late apoptotic cells at 0.5 uM after 24 hrs by Annexin V-FITC/propidium iodide-based FACS analysis (reference value: 0.30 %); type: functional
PANC-1 [19] = assay: Induction of apoptosis in human PANC1 cells assessed as necrotic cells at 0.5 uM after 24 hrs by Annexin V-FITC/propidium iodide-based FACS analysis (reference value: 0.75 %); type: functional
PANC-1 [20] = assay: Induction of apoptosis in human PANC1 cells assessed as viable cells at 1 uM after 24 hrs by Annexin V-FITC/propidium iodide-based FACS analysis (reference value: 94.63 %); type: functional; settings: PANC-1, 24 h, read-out: Activity
PANC-1 [21] = assay: Induction of apoptosis in human PANC1 cells assessed as early apoptotic cells at 1 uM after 24 hrs by Annexin V-FITC/propidium iodide-based FACS analysis (reference value: 4.31 %); type: functional
PANC-1 [22] = assay: Induction of apoptosis in human PANC1 cells assessed as late apoptotic cells at 1 uM after 24 hrs by Annexin V-FITC/propidium iodide-based FACS analysis (reference value: 0.30 %); type: functional
PANC-1 [23] = assay: Induction of apoptosis in human PANC1 cells assessed as necrotic cells at 1 uM after 24 hrs by Annexin V-FITC/propidium iodide-based FACS analysis (reference value: 0.75 %); type: functional
PANC-1 [24] = assay: Induction of apoptosis in human PANC1 cells after 24 hrs by Annexin V-FITC/propidium iodide-based FACS analysis; type: functional, cell-based

Row | Structure (SMILES) | inhibition (Homo sapiens) [%] | IC50 [1] [nM] | IC50 [2] [nM] | IC50 [3] [nM] | Papp [4] [×10⁻⁶ cm/s] | also measured
1 | CC1=C(O)C(=O)C=C2C1=CC=C1[C@@]2(C)CC[C@@]2(C)[C@@H]3C[C@](C)(C(=O)NCCN4CCCCC4)CC[C@]3(C)CC[C@]12C | 75.7 | 1180 | 1250 | 840 | 18.1 | 
2 | CCN(CC)CCNC(=O)[C@]1(C)CC[C@]2(C)CC[C@]3(C)C4=CC=C5C(=CC(=O)C(O)=C5C)[C@]4(C)CC[C@@]3(C)[C@@H]2C1 | 94.5 | 1030 | 1270 | 710 | 53.1 | IC50 [5]: 5740 nM
3 | CC1=C(O)C(=O)C=C2C1=CC=C1[C@@]2(C)CC[C@@]2(C)[C@@H]3C[C@](C)(C(=O)NCCN4CCOCC4)CC[C@]3(C)CC[C@]12C | 77.2 | 1340 | 1350 | 1270 | 11.4 | 
4 | CNC(=O)[C@]1(C)CC[C@]2(C)CC[C@]3(C)C4=CC=C5C(=CC(=O)C(O)=C5C)[C@]4(C)CC[C@@]3(C)[C@@H]2C1 | 69.2 | 1200 | 1420 | 1930 |  | 
5 | CC1=C(O)C(=O)C=C2C1=CC=C1[C@@]2(C)CC[C@@]2(C)[C@@H]3C[C@](C)(C(=O)N4CCCC4)CC[C@]3(C)CC[C@]12C | 56.4 | 1810 | 2110 | 2850 |  | 
6 | CC1=C(O)C(=O)C=C2C1=CC=C1[C@@]2(C)CC[C@@]2(C)[C@@H]3C[C@](C)(C(=O)N4CCCCC4)CC[C@]3(C)CC[C@]12C | 54.8 | 1890 | 2290 | 1920 |  | 
7 | CC1=C(O)C(=O)C=C2C1=CC=C1[C@@]2(C)CC[C@@]2(C)[C@@H]3C[C@](C)(C(=O)N4CCCC(C)C4)CC[C@]3(C)CC[C@]12C (stereo not given in full) | 47.9 | 2030 | 1840 | 2430 |  | 
8 | CC1=C(O)C(=O)C=C2C1=CC=C1[C@@]2(C)CC[C@@]2(C)[C@@H]3C[C@](C)(C(=O)NCCN(C(C)C)C(C)C)CC[C@]3(C)CC[C@]12C | 81.6 | 1260 | 1050 | 800 | 35.2 | 
9 | CC1=C(O)C(=O)C=C2C1=CC=C1[C@@]2(C)CC[C@@]2(C)[C@@H]3C[C@](C)(C(=O)N(C)C)CC[C@]3(C)CC[C@]12C | 60.6 | 1430 | 2660 | 1810 |  | 
10 | CC1=C(O)C(=O)C=C2C1=CC=C1[C@@]2(C)CC[C@@]2(C)[C@@H]3C[C@](C)(C(=O)NCCN(C)C)CC[C@]3(C)CC[C@]12C | 93.6 | 640 | 1230 | 1080 | 45 | IC50 [5]: 5630 nM
11 | COC(=O)[C@]1(C)CC[C@]2(C)CC[C@]3(C)C4=CC=C5C(=CC(=O)C(O)=C5C)[C@]4(C)CC[C@@]3(C)[C@@H]2C1 [PRISTIMERIN] | 60.5 | 1570 | 1490 | 1400 |  | 
12 | CC1=C(O)C(=O)C=C2C1=CC=C1[C@@]2(C)CC[C@@]2(C)[C@@H]3C[C@](C)(C(=O)O)CC[C@]3(C)CC[C@]12C [CELASTROL] | 91.8 | 2130 | 2480 | 2020 | 13.3 | IC50 [5]: 6490 nM; IC50 [6]: 2010 nM
13 | CC(=O)NCCNC(=O)[C@]1(C)CC[C@]2(C)CC[C@]3(C)C4=CC=C5C(=CC(=O)C(O)=C5C)[C@]4(C)CC[C@@]3(C)[C@@H]2C1 | 70.5 | 2260 | 3000 | 3120 |  | 
14 | CC1=C(O)C(=O)C=C2C1=CC=C1[C@@]2(C)CC[C@@]2(C)[C@@H]3C[C@](C)(C(=O)NC(C)C)CC[C@]3(C)CC[C@]12C | 60 | 2550 | 2040 | 2640 |  | 
15 | CC1=C(O)C(=O)C=C2C1=CC=C1[C@@]2(C)CC[C@@]2(C)[C@@H]3C[C@](C)(C(=O)OCC(C)C)CC[C@]3(C)CC[C@]12C | 28.4 | 2060 | 1900 | 3420 |  | 
16 | CC1=C(O)C(=O)C=C2C1=CC=C1[C@@]2(C)CC[C@@]2(C)[C@@H]3C[C@](C)(C(=O)OC(C)C)CC[C@]3(C)CC[C@]12C | 51.5 | 1320 | 1360 | 2580 |  | 
17 | CC1=C(O)C(=O)C=C2C1=CC=C1[C@@]2(C)CC[C@@]2(C)[C@@H]3C[C@](C)(C(=O)NCCN4CCCC4)CC[C@]3(C)CC[C@]12C | 89.2 | 1100 | 1030 | 670 | 23 | IC50 [5]: 6500 nM
18 | CCCOC(=O)[C@]1(C)CC[C@]2(C)CC[C@]3(C)C4=CC=C5C(=CC(=O)C(O)=C5C)[C@]4(C)CC[C@@]3(C)[C@@H]2C1 | 44.9 | 1520 | 1310 | 1740 |  | 
19 | CCNC(=O)[C@]1(C)CC[C@]2(C)CC[C@]3(C)C4=CC=C5C(=CC(=O)C(O)=C5C)[C@]4(C)CC[C@@]3(C)[C@@H]2C1 | 69 | 1430 | 1820 | 2080 |  | 
20 | CCCNC(=O)[C@]1(C)CC[C@]2(C)CC[C@]3(C)C4=CC=C5C(=CC(=O)C(O)=C5C)[C@]4(C)CC[C@@]3(C)[C@@H]2C1 | 60 | 2040 | 2370 | 2490 |  | 
21 | CCOC(=O)[C@]1(C)CC[C@]2(C)CC[C@]3(C)C4=CC=C5C(=CC(=O)C(O)=C5C)[C@]4(C)CC[C@@]3(C)[C@@H]2C1 | 54.8 | 1760 | 1560 | 1970 |  | 
22 | CC1=C(O)C(=O)C=C2C1=CC=C1[C@@]2(C)CC[C@@]2(C)[C@@H]3C[C@](C)(C(=O)NCCCn4ccnc4)CC[C@]3(C)CC[C@]12C | 71.7 | 1840 | 1530 | 3370 | 0.6 | 
23 | CC1=C(O)C(=O)C=C2C1=CC=C1[C@@]2(C)CC[C@@]2(C)[C@@H]3C[C@](C)(C(=O)NCCN4CCN(C)CC4)CC[C@]3(C)CC[C@]12C | 96.9 | 1020 | 1120 | 1010 | 29 | IC50 [5]: 4710 nM; IC50 [6]: 450 nM; inhibition (PANC-1 [7]): Active; inhibition (PANC-1 [8]): Dose-dependent effect; inhibition (PANC-1 [9]): Dose-dependent effect; Activity [10]: 46.6%; Activity [11]: 32%; Activity [12]: 21.4%; Activity [13]: 55.4%; Activity [14]: 25.9%; Activity [15]: 18.7%; viability at 0.5 µM (PANC-1 [16]): 90%; Activity (PANC-1 [17]): 8.37%; Activity (PANC-1 [18]): 0.4%; Activity (PANC-1 [19]): 1.27%; viability at 1 µM (PANC-1 [20]): 64.1%; Activity (PANC-1 [21]): 31.01%; Activity (PANC-1 [22]): 2.61%; Activity (PANC-1 [23]): 2.31%; Activity (PANC-1 [24]): Dose-dependent effect
24 | CC1=C(O)C(=O)C=C2C1=CC=C1[C@@]2(C)CC[C@@]2(C)[C@@H]3C[C@](C)(C(=O)NCCS(C)(=O)=O)CC[C@]3(C)CC[C@]12C | 69.8 | 1300 | 1200 | 2410 |  | 
